Consider three compounds from paper PMC10367051, “Comprehensive Mechanistic View of the Hydrolysis of Oxadiazole-Based Inhibitors by Histone Deacetylase 6 (HDAC6)” (ACS Chemical Biology, 2023).

The target of one test is T1, HDAC6(Y745F) mutant (Danio rerio, UniProt F8W4B7, Y745F).
T1 construct: Danio rerio HDAC6 (amino acids 440–798; zHDAC6); His (N, cleaved yes); MBP (N, cleaved yes); made in house; host or cells: RIPL Escherichia coli
T1 sequence (F8W4B7 440-798 Y745F): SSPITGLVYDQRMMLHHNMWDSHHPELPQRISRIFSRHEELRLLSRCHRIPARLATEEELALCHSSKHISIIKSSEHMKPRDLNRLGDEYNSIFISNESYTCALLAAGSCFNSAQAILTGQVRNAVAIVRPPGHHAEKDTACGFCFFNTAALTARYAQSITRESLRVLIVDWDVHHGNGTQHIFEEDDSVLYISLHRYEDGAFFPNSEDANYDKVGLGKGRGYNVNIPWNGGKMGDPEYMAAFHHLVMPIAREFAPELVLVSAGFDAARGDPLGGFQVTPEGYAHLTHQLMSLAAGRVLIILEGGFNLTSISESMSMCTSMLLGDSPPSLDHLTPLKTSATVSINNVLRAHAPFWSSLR
The experiment in a line: Inhibitor hydrolysis in vitro by HDAC6(Y745F) mutant (LC-MS/MS). The class given is biochemical. To be noted: 30 °C; for hydrolysis by the HDAC6(Y745F) mutant: 20 μM compound, 2 μM enzyme. As to the method: The zHDAC6 mutants (Y745F and H574A) were constructed using the Quick-change site-directed mutagenesis protocol with the pEC566-zHDAC6 expression plasmid as a template. Both mutants were expressed and purified as described above for wild-type zHDAC6 (Figure S2).
Mass spectrometry quantification of inhibitors/reaction products was carried out with a Shimadzu LCMS-8040 instrument (Shimadzu, HPLC Prominence system). Analytes were separated on a Kinetex XB-C18 2.6 μm, 100 Å column (50 × 2.1 mm; Phenomenex) in a linear 15–60% CH3CN/H2O gradient containing 0.1% formic acid at a flow rate of 0.8 mL min^–1 over 4 min. Multiple reaction monitoring (MRM) parameters were optimized for each analyte, and corresponding major CID fragments were used for quantification. Analytes were quantified using corresponding calibration curves generated from pure compounds dissolved in water.
[…] […] Four microliter aliquots of reaction mixtures were injected into the system directly from the 96-well plate, and inhibitors/reaction products were quantitated as described above.

The next test addresses T2, HDAC10 (Homo sapiens, UniProt Q969S8).
T2 construct: made in house; host or cells: HEK293/T17
T2 sequence (Q969S8 1-669): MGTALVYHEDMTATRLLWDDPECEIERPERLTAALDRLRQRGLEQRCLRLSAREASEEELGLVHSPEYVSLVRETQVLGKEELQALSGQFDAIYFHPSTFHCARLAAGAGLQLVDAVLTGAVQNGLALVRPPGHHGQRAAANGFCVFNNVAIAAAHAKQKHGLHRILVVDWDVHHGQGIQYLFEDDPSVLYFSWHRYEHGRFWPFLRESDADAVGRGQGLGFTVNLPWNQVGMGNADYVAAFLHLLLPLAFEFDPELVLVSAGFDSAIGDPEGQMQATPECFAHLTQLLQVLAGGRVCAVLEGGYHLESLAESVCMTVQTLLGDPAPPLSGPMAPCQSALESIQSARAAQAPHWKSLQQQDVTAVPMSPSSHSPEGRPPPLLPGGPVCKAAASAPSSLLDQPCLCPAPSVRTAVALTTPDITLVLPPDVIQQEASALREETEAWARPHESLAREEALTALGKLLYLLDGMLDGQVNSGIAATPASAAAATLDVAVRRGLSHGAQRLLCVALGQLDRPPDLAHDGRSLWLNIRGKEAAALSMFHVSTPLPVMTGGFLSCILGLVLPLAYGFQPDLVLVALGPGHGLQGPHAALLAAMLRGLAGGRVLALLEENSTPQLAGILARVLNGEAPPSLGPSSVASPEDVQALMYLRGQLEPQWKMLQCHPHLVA
Nature of the test: HDAC10 inhibition assay (HPLC readout). Format: biochemical. Conditions: purified human protein, fluorescein-labeled N8-acetylspermidine substrate, 15 min preincubation. As to the method:
Large-scale expression of recombinant human HDACs was carried out as described previously.[32],[37] Briefly, HEK293/T17 cells were transiently transfected with expression pMM222 plasmids comprising N-terminally tagged (TwinStrep-FLAG-HALO tag; Figure S1) HDAC genes using linear poly(ethyleneimine) (PEI, Polysciences Inc.). Cells were harvested three days post-transfection, and cell pellets were resuspended in the lysis buffer (100 mM Tris-HCl, 10 mM NaCl, 5 mM KCl, 2 mM MgCl2, and 10% glycerol at pH 8.0). Cells were disrupted by sonication, cell lysates were cleared by centrifugation, and soluble fusion proteins were first purified by Streptactin affinity chromatography (IBA). For all HDACs but HDACs 1, 10, and 11, the N-terminal tag was cleaved off overnight by the addition of TEV protease (10:1 HDAC/TEV ratio). […]
Optimized fluorometric assays were used to determine inhibition constants of studied compounds against individual HDAC isoforms as described previously.[32] […] Deacetylation reactions were monitored either by high-performance liquid chromatography (HPLC) (HDAC10) or by quantification of released AMC (λex/λem = 365/440 nm) using a CLARIOstar plate reader (BMG Labtech GmbH).

Take `CS(=O)(=O)N(Cc1ccc(C(=O)NNC(=O)C(F)F)cn1)c1cccc(Cl)c1` [compound 6]: the “hydrolysis by the HDAC6(Y745F) mutant” value at HDAC6(Y745F) mutant is “hydrolyzed”. For the compound `CS(=O)(=O)N(Cc1ccc(-c2nnc(C(F)(F)F)o2)cn1)c1cccc(Cl)c1` [compound 7], the 50% inhibitory concentration (IC50) at HDAC10 was above 20 µM. For the compound `CS(=O)(=O)N(Cc1ccc(-c2nnc(C(F)F)o2)cn1)c1cccc(Cl)c1` [compound 8], the “rate of hydrolysis by the HDAC6(Y745F) mutant relative to wild type” value at HDAC6(Y745F) mutant (20 μM 8, 2 μM enzyme) is on record as “comparable to the wild-type HDAC6”. Moreover, on HDAC6(Y745F) mutant, the “hydrolysis by the HDAC6(Y745F) mutant” value was “hydrolyzed”. The compound also gave an IC50 against HDAC10 above 20 µM.
